This test addresses murine double minute 2 (MDM2) (Homo sapiens, UniProt Q00987). Kind of test: biochemical. In kind it is binding.

SMILES strings stand for the structures.

Sequence of murine double minute 2 (MDM2) (Q00987 3-155): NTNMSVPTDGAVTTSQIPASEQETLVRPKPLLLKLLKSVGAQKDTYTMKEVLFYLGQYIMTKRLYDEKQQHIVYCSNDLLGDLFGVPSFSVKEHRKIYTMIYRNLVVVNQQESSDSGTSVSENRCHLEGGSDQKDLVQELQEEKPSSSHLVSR

Consider `CN1CCCC(n2nc(Cc3ccc(Cl)cc3)c3ccccc3c2=O)CC1` (centres unmarked) [azelastine], for which half-maximal inhibition (IC50) was put at 367 nM.
Under `CC(C)COCC(CN(Cc1ccccc1)c1ccccc1)N1CCCC1` (centres unmarked) [bepridil] stands 206 nM.

Broadly, the IC50 is the concentration that gives 50% inhibition.

Values taken from paper PMC6942878 (Analytical biochemistry, 2019).
